This passage reports melting point results from a melting point compilation (Tetko et al.; mined from patent text by program, amines drawn as free bases though some values may be those of a salt).

Compound `COc1ccc(-c2nc3cc(Cl)cc(C#CCN(OC(=O)OC(C)(C)C)C(=O)OC(C)(C)C)c3o2)cc1OC1CCCC1` gave a melting point of 144 to 146 °C.
As to `CC(C)CNC(=O)[C@H](C)C[C@H](O)[C@H](CC1CCCCC1)NC(=O)[C@H](Cc1cscn1)NC(=O)OC(C)(C)C`, the melting point was 178 to 180 °C.
The compound `c1csc(-c2cnc(COc3ccc(CCCn4ccnc4)cc3)o2)c1` had a melting point of 75 to 76 °C.
`Cc1nc(-c2ccc(O)cc2)cc(-c2cccc(Br)c2)c1C#N` returned a melting point of 214 to 218 °C.
The compound `CCCCCC/C=C/CCCCCCCC(=O)Nc1nc(CC(=O)O)cs1` gave a melting point of 117 to 118 °C.
`CN(C)C(=O)n1cc(C(=O)C2CSC(c3cccnc3)N2)c2ccc(OCc3ccc(F)cc3)cc21` (stereo not drawn): the melting point lay within 71 to 74 °C.
Take `CC(C)n1c(=O)nc(-c2ccc(N(C)C)cc2)c2cc3c(cc21)OCO3`: the melting point fell in the range of 240 to 245 °C.
`CC1(C)OC(C=Cc2cccnc2)=CC1=O` registered a melting point of 68 to 70 °C.
In the case of `COc1ccccc1N1CCN(CCNc2c(OC)cnn(C)c2=O)CC1` it was 144 to 148 °C; in that of `CCCCOc1nc(N)c2[nH]c(=O)n(CCCCN(Cc3cccc(CC(=O)O)c3)CC(C)(C)CN(C)C)c2n1`, 189 to 190 °C; in that of `Nc1c(-c2nc(-c3ccco3)n[nH]2)cnn1CCc1ccccc1`, 175 to 176 °C.
`CCOC(=O)c1cccc(NC(=O)Nc2ccc(-n3nc(C(F)(F)F)cc3C(F)(F)F)cc2)c1`: the melting point lay within 211 to 212 °C.
`N#CN1CCC(=C2c3ccccc3Oc3ccc(Cl)cc32)CC1`: the melting point was in the range of 148 to 150 °C.
The compound `CCOC(=O)C=Cc1cc(-n2nc3ccc(Cl)cn3c2=O)c(F)cc1Cl` showed a melting point of 162 to 165 °C.
On to `O=C1c2ccc(Cl)cc2C(=O)N1c1ccc([N+](=O)[O-])cc1Cl`, for which the melting point lay in the range of 209 to 212 °C.
On to `CC(C)c1cc(C(=O)Nc2ccc(CC(=O)O)cc2)oc1C(C)C`, for which the melting point is 154 to 156 °C.
Take `CC(C)(C)c1cc(CCc2ccccc2NC(=O)N2CCN(Cc3ccccc3)CC2)cc(C(C)(C)C)c1O`: the melting point lay in the range of 70 to 72 °C.
Compound `CCCCNC(=O)/C(=C/C=C/c1cc2ccccc2[nH]1)OC` yielded a melting point of 185 to 186 °C.
Regarding `CCCCCCOc1ccc(C2OCC(C(=O)O)CO2)cc1` (stereo not drawn), the melting point worked out at 30 °C.
Compound `COc1ccc(-c2cc(=O)c3cc(OCCCCCN4CCC(O)CC4)ccc3o2)cc1OC` came in with a melting point of 154 to 155 °C.
With `CON=C(C)c1cccc(S(N)(=O)=O)c1`, the melting point is 165 to 166 °C.
In turn, `COC(=O)CN1CCN(CC(=O)OC)[C@@H](C(N)=O)[C@H]1C(N)=O` came in with a melting point of 172 to 173 °C.
With `CC(C)(C)CC1N(C(c2ccccc2)C(O)c2ccccc2)C(C(=O)NC2CCC(O)CC2)C(c2cccc(Cl)c2F)C12C(=O)Nc1cc(Cl)ccc12` (stereo not drawn), the melting point came out at 190 °C.
As for `CC(=O)c1c(CO)[nH]c(-c2ccncc2)c1C`, the melting point lay in the range of 163 to 165 °C.
With `O=c1c2cccc3c2n(c(=O)n1CCO)-c1cc(C(F)(F)F)ccc1S3=O` (stereo not drawn), the melting point lay in the range of 205 to 206 °C.
For `COC(=O)NCOC(=O)N=CNc1c(Cc2cccnc2)c[nH]c1C(=O)OC`, the melting point was 160 to 162 °C.
Compound `O=Cc1cc(Cl)cc2c1OCCC2` yielded a melting point of 83 to 86 °C.
In the case of `OCC1CCN(c2nc3ccccc3s2)CC1` it was 76 to 80 °C; in that of `Cc1cc(C)c2cccc(OCc3c(Cl)ccc(S(=O)(=O)N4CCC[C@H]4C(=O)NCCCNC(=O)c4ccc(C=NN)cc4)c3Cl)c2n1`, 178 to 180 °C.
In turn, `Cc1ccc(-c2ccccc2)cc1Cn1c(C(F)F)nn(C)c1=O` gave a melting point of 72.7 °C.
`CCn1c(Oc2cccc(N3CCC4(CC3)OCCO4)c2)nnc1[C@@H](C)NS(=O)(=O)c1ccc(Cl)c(Cl)c1` showed a melting point of 174 to 179 °C.
Regarding `Cc1ccc(C(=O)Nc2ccc(C)c(-c3nc(S(C)(=O)=O)nc4c3CNC(=O)N4c3c(F)cccc3F)c2)cc1F`, the melting point was more than 270 °C.
With `COc1cc(COc2cc(CO)n(-c3ccccc3)n2)ccc1OCc1nc(-c2ccccc2)oc1C` the figure was 146 to 147 °C; with `C=C(c1cncn1Cc1ccccc1)C(c1ccc(C)cc1)c1ccc(C)cc1`, 216 to 220 °C; with `CN(Cc1ccc([N+](=O)[O-])cc1)C1CCN(c2ccc(NS(C)(=O)=O)cc2)CC1`, 167 to 168 °C.
For `CCCCCCOc1ccc(NC(=O)CC(=O)C(C)(C)C)cc1`, the melting point was in the range of 70 to 72 °C.
With `Cc1cc2nc(Cl)c3cnc(Cl)cc3n2n1` the figure was 203 °C.
Consider `COc1ccc2[nH]cc(CC3=CCCN(CCCC(=O)c4cccs4)C3)c2c1`, for which the melting point fell in the range of 140 to 150 °C.
Consider `Cc1oc(-c2ccccc2)nc1CCOc1ccc(COc2ncccc2CC(=O)O)cc1`, for which the melting point fell in the range of 134 to 135 °C.
`Nc1cc([N+](=O)[O-])c[nH]c1=O` came in with a melting point of 200 to 201 °C.
The compound `Cc1ccc(C(=O)Nc2cccc(C(F)(F)F)c2)cc1-c1ccc2ncsc2c1` yielded a melting point of 102 to 104 °C.
In turn, `CCc1nnc(-c2cccc([N+](=O)[O-])c2)n1-c1ccc(OC)cc1` returned a melting point of 126 °C.
The compound `CCOC(=O)c1cccn2cc(C)nc12` showed a melting point of 62 to 64 °C.
In the case of `c1cncc(CC2(Cc3cccnc3)c3ccccc3-c3ccccc32)c1` it was 137 to 138 °C.
As to `CSc1ccc(COc2cccc(C(=O)Nc3ccc(C#N)cn3)c2)cc1`, the melting point fell in the range of 146 to 147 °C.
Turning to `Cc1cc(-c2cnn3c(C(F)(F)F)cc(-c4ccc(C(F)(F)F)cc4)nc23)cc(C)n1`, the melting point came to 257 °C.
For the compound `CS(=O)c1ccc(-n2[nH]c3ccccc3c2=O)cc1` (stereo not drawn), the melting point was 208 to 210 °C.
With `CCc1cc([N+](=O)[O-])cc(C=O)c1O` the figure was 93.5 to 94 °C.
`CC(C)(C)OC(=O)N1CCC(OCc2ccccc2)C1CC(O)Cn1cnc2cccc(C(F)(F)F)c2c1=O` (stereo not drawn) showed a melting point of 224 °C.
Consider `COc1ccccc1NC(=O)c1ccc(C)cc1`, for which the melting point is 72.5 to 74.5 °C.
Compound `CC(C)(C)c1cc(C(=O)NCCCSc2ccncc2)cc(C(C)(C)C)c1O` gave a melting point of 203 to 204 °C.
In turn, `CC(=O)c1cn(Cc2ccc(F)cc2)c(=O)n(Cc2ccc(F)cc2)c1=O` returned a melting point of 134 to 135 °C.
Turning to `COc1ccc(Cl)cc1N1CCN(CCCNC(=O)c2cccc3c(=O)c(C)c(C(N)=O)oc23)CC1`, the melting point lay in the range of 184 to 192 °C.
On to `COC1OCC2C(O)C3CCCCC3CC12` (stereo not drawn), for which the melting point lay in the range of 75 to 77 °C.
With `NC(=O)c1ccc(N2CCN(Cc3cn4cc(Cl)cc(Cl)c4n3)CC2)cc1` the figure was 234 to 235 °C; with `c1cncc(C2=NNC(c3cccnc3)S2)c1` (stereo not drawn), 77 to 78 °C; with `COc1ccc(S(=O)(=O)N(CC(=O)NO)Cc2ccc3ccccc3n2)cc1`, 177 to 178 °C.
`COC(=O)c1ncsc1S(=O)(=O)Cl` returned a melting point of 94 to 97.5 °C.
Turning to `CC(c1oc2ccccc2c(=O)c1-c1cccc(F)c1)n1nc(-c2cccc(N(C)C)c2)c2c(N)ncnc21` (stereo not drawn), the melting point lay within 218 to 220 °C.
The compound `COC(=O)NNC(=O)c1ccc(O)cc1` came in with a melting point of 229 to 230 °C.
For `O=c1cc(N2CCOCC2)oc2cc(OS(=O)(=O)C(F)(F)F)ccc12`, the melting point is 143 to 145 °C.
Consider `N#Cc1cccc2c1CC(=NN)c1cccc(F)c1S2`, for which the melting point was 203 to 206 °C.
As to `Cc1nc2c(N)nc3ccccc3c2o1`, the melting point fell in the range of 195 to 197 °C.
Regarding `CCCC(CNc1nc(C)c(OC)c(C)n1)c1ccccc1` (stereo not drawn), the melting point lay within 31 to 33 °C.
As to `COc1ccc2cc(N(C(C)=O)c3ccc(O)cc3)ccc2c1`, the melting point is 187 to 188 °C.
Compound `Cc1cc(F)ccc1-c1ccc(S(=O)(=O)N2c3ccccc3CC2C(=O)O)cc1` (stereo not drawn) returned a melting point of 62 to 67 °C.
The compound `COC(=O)C1=C(C)NC(C)=C(C(=O)OCCN2CCN(C(c3ccc(C)cc3)c3ccc(C)cc3)CC2)C1c1cccc([N+](=O)[O-])c1` (stereo not drawn) came in with a melting point of 83 to 87 °C.
Compound `CSc1c(C)[nH]c2c(C)cccc12` displayed a melting point of 32 to 33 °C.
Compound `CCc1ccc(-c2nc3cccnc3n2-c2ccc(CCNC[C@H](O)COc3ccc(O)cc3)cc2)cc1` had a melting point of 75 to 78 °C.
In the case of `Fc1ccccc1-c1cnc2nncn2n1` it was 193 to 196 °C.
For the compound `CS(=O)(=O)c1ccc(-c2[nH]c(C(O)(C(F)(F)F)C(F)(F)F)nc2-c2ccccc2)cc1`, the melting point was 223 to 225 °C.
`CCN1CCN(c2nc(-c3ccccc3)nc3sc(C#N)c(C)c23)CC1` returned a melting point of 178 to 179 °C.
For `c1cc2nc3c(n2nc1N1CCOCC1)CCCC3`, the melting point was 188 °C.
`COC(=O)C(C#N)c1cccc2ccc(OC)cc12` (stereo not drawn) yielded a melting point of 80 to 82 °C.
With `O=c1cc(O)c2c([nH]1)CCCCC2` the figure was more than 270 °C; with `C=CCOc1ccc(Cl)cc1NC(=O)Cc1ccc(OC)c(OC2CCCC2)c1`, 75 to 76.5 °C.
Compound `CCNc1cc(NS(=O)(=O)c2ccc(C(C)(C)C)cc2)nc(NCC)n1` came in with a melting point of 316 to 318 °C.
In turn, `CC(C)(C)OC(=O)n1cc2c(c1C=O)OCCO2` yielded a melting point of 94 to 95 °C.
For `Cc1nc(C)c(C(C)(O)c2cccnc2)s1` (stereo not drawn), the melting point fell in the range of 108 to 109 °C.
In turn, `COc1ccc(OC)c2c1ccn2Cc1ccc(Cl)cc1` registered a melting point of 62 to 63 °C.
`CCCc1n[nH]c(C(N)=O)c1[N+](=O)[O-]` came in with a melting point of 197 to 199 °C.
With `CC1NN(Cc2ccc(Cl)cc2)C(=O)NC1=O` (stereo not drawn), the melting point stood at 155 °C.
`CC(C)(O)c1cnn2c(-c3cccc(-c4ccccc4C#N)c3)cnc2n1` displayed a melting point of 166 °C.
`COC(=O)C12OC1(Cc1ccc(Cl)cc1)CCC2(C)C` (stereo not drawn): the melting point lay within 86 to 87 °C.
For the compound `Cc1nn(C)c(OCC(=O)C(C)(C)CCl)c1C(=O)c1ccc(Cl)cc1Cl`, the melting point lay in the range of 58 to 60 °C.
`O=C1c2ccccc2C2(O)Oc3c(ccc4c3CCCC4)C12O` (stereo not drawn) returned a melting point of 252 to 254 °C.
In the case of `CC(=O)Nc1ncc2c(n1)-c1sc(NC(C)=O)nc1CC2` it was more than 310 °C; in that of `Cc1cnc2oc(-c3ccccc3)nc2c1`, 71 to 73 °C.
